Laboratory results as given in the NIST ThermoML archive (doi:10.1021/acs.jced.7b00440).
± gives the expanded uncertainty stated by the source.

Conditions: 100 kPa, Liquid; for viscosity: Capillary tube (Ostwald / Ubbelohde) method; for mass density: Vibrating tube method

viscosity (293.15 K) | mass density (293.15 K) | viscosity (298.15 K) | mass density (298.15 K) | viscosity (303.15 K) | mass density (303.15 K) | viscosity (308.15 K) | mass density (308.15 K) | viscosity (313.15 K) | mass density (313.15 K) | viscosity (318.15 K) | mass density (318.15 K) | viscosity (323.15 K) | mass density (323.15 K) | viscosity (328.15 K) | mass density (328.15 K) | viscosity (333.15 K) | mass density (333.15 K) | Structure (SMILES)
4.077 ± 0.079 mPa·s | 801.98 ± 0.27 kg/m3 | 3.394 ± 0.066 mPa·s | 798.13 ± 0.27 kg/m3 | 2.949 ± 0.057 mPa·s | 794.24 ± 0.27 kg/m3 | 2.54 ± 0.049 mPa·s | 790.29 ± 0.27 kg/m3 | 2.208 ± 0.043 mPa·s | 786.3 ± 0.27 kg/m3 | 1.855 ± 0.036 mPa·s | 782.24 ± 0.27 kg/m3 | 1.621 ± 0.032 mPa·s | 778.12 ± 0.27 kg/m3 | 1.425 ± 0.028 mPa·s | 773.92 ± 0.27 kg/m3 | 1.25 ± 0.024 mPa·s | 769.65 ± 0.27 kg/m3 | CC(C)CO [2-methyl-1-propanol]
2.97 ± 0.056 mPa·s | 809.01 ± 0.2 kg/m3 | 2.547 ± 0.048 mPa·s | 805.87 ± 0.2 kg/m3 | 2.237 ± 0.042 mPa·s | 802.06 ± 0.21 kg/m3 | 1.98 ± 0.038 mPa·s | 798.18 ± 0.21 kg/m3 | 1.757 ± 0.033 mPa·s | 794.26 ± 0.21 kg/m3 | 1.568 ± 0.03 mPa·s | 790.3 ± 0.21 kg/m3 | 1.404 ± 0.027 mPa·s | 786.29 ± 0.21 kg/m3 | 1.255 ± 0.024 mPa·s | 782.02 ± 0.21 kg/m3 | 1.132 ± 0.022 mPa·s | 777.81 ± 0.21 kg/m3 | CCCCO [butan-1-ol]
3.742 ± 0.071 mPa·s | 807.17 ± 0.2 kg/m3 | 3.093 ± 0.059 mPa·s | 803.05 ± 0.21 kg/m3 | 2.579 ± 0.049 mPa·s | 798.85 ± 0.21 kg/m3 | 2.147 ± 0.041 mPa·s | 794.55 ± 0.21 kg/m3 | 1.826 ± 0.035 mPa·s | 790.16 ± 0.21 kg/m3 | 1.555 ± 0.03 mPa·s | 785.66 ± 0.21 kg/m3 | 1.337 ± 0.025 mPa·s | 781.05 ± 0.21 kg/m3 | 1.142 ± 0.022 mPa·s | 776.34 ± 0.21 kg/m3 | 0.992 ± 0.019 mPa·s | 771.51 ± 0.21 kg/m3 | CCC(C)O (centres undefined) [butan-2-ol]
